Structures are written as SMILES.

The values that follow come from patent US20210030725A1, “RESTORATION OF TRANSMEMBRANE COPPER TRANSPORT” (The Board of Trustees of the University of Illinois, priority 2018, published 2021).

In data set [1] the test system is DELccc2 yeast strain missing the intracellular ATP-driven copper pump CCC2. Briefly: Growth rescue of DELccc2 yeast on solid media. It is filed as cell-based. The protocol: Growth rescue in yeast was performed on SD-agar plates in 50 mM MES/Tris buffer at pH=7.0 containing 2% agarose gel, and 10 μM hinokitiol (from 40× stock in DMSO). Wild type and DELccc2 yeast strain controls treated with vehicle (DMSO) were performed under identical conditions using a no-copper containing SD media supplemented with 0.5 μM CuCl2 in the absence of hinokitiol. Yeast were grown overnight in YPD media and diluted to an optical density at 600 nm (OD600) of 1.0 in low copper SD media before 10-fold serial dilution and inoculation of these yeast suspensions (10 μL per dot) onto the low copper SD-agar plates described above containing either DMSO vehicle or hinokitiol (10 μM from 40× DMSO stock). For disc diffusion assays, yeast were grown overnight in YPD media and diluted to an OD600=0.1 in low copper SD media and streaked onto low copper SD-agar plates containing 0.5 μM CuCl2. Disc diffusion assays were performed using either DMSO or 10 mM stock solutions (in DMSO) of hinokitiol on low copper SD-agar plates containing 0.5 μM CuCl2 streaked with the appropriate yeast strain (from OD600=0.1 in low copper SD media). Images were taken 48 hours after inoculation and incubation at 30° C. unless otherwise noted. […]

Data set [2] is described as follows: Partitioning of chelator:copper complex between octanol and water. It is filed as physicochemical. To be noted: hinokitiol:copper complex. On the procedure: Biophysical experiments were performed to better understand the capacity of hinokitiol to bind and transport copper. […] Unlike the aforementioned water-soluble copper chelators, the hinokitiol:copper complex primarily partitioned into the nonpolar solvents over water (FIG. 4A). To expand, 95% of the hinokitiol:copper complex partitioned into octanol over water as opposed to >85% of the currently available water-soluble chelators partitioned into water over octanol.

Data set [3] in a line: Copper (II) transport across liposomal membranes, hinokitiol vs water-soluble chelators. Conditions: relative to controls.
Data set [4] can be described thus: Hinokitiol-promoted release of divalent metals from POPC liposomes (PhenGreen assay). Conditions: hinokitiol 10 μM. The protocol: Hinokitiol-promoted release of different divalent metals from POPC liposomes was performed by tracking the quenching of PhenGreen (Fisher P14312) similar to previously reported. Liposomes were prepared as described above with an internal buffer consisting of either 10 mM ascorbate in a 5 mM MES/Tris buffer at pH=7.0 (for Fe^2+), 10 mM citrate in a 5 mM MES/Tris buffer at pH=7.0 (for Cu^2+), or a 5 mM MES/Tris buffer at pH=7.0 (for Mn^2+, Co^2+, and Zn^2+). In all cases, liposomes were prepared using 5 mM of either FeCl2, MnCl2, CoCl2, NiCl2, ZnCl2, or CuCl2 added to the internal buffer. […] The fluorescence was monitored with excitation at 500 nm and emission at 530 nm over 1 hour. After one hour, the liposomes were lysed with Triton-X and the fluorescence was recorded. […] The DMSO-treated and hinokitiol-treated liposomes had similar fluorescence quenching levels after lysis. The total amount of metal efflux was determined using standard curves of fluorescence quenching in external buffer with 10 μM PhenGreen and known concentrations of each metal. The t1/2 values were calculated using an asymptotic fit in OriginPro. […] Hinokitiol (10 μM) rapidly promotes the efflux of multiple divalent metals from POPC liposomes as determined by a PhenGreen assay. […] Quantification of metal release was done by comparison of fluorescence quenching to a standard curve for each metal. […]

The subject of data set [5] is DELccc2 yeast strain missing the intracellular ATP-driven copper pump CCC2. Briefly: Growth rescue of DELccc2 yeast in liquid culture. It is filed as cell-based. On the procedure:
(§1) Growth rescue in yeast was performed using 10 μM hinokitiol in SD media in a 96-well plate unless otherwise noted. Wild type and DELccc2 yeast strain treated with vehicle (DMSO) or hinokitiol were performed under identical conditions using a normal iron-containing, no-copper containing SD media, this time supplemented with 1.5 or 2 μM CuCl2. Yeast were grown overnight in YPD media and diluted at an OD600 of 0.1 in SD media, diluted 10-fold, and incubated at 30° C. with continuous shaking (200 rpm). The OD600 was obtained 48 hours after inoculation unless otherwise noted. Small molecule dose-response with hinokitiol was determined by addition of the small molecule (40× stock solution in DMSO) to give the indicated final concentrations. Copper dose-response studies were performed in low copper SD media without CuCl2 containing the indicated concentrations of hinokitiol (from a 40× stock solution in DMSO). For dose-dependent hinokitiol-promoted rescue at increasing dosages of CuCl2, SD media was made containing the indicated concentrations of CuCl2 from 1000× CuCl2 stocks before adding hinokitiol (40× stock solution in DMSO) to give the indicated final concentrations. […]

In data set [6] the test system is iron transporter-deficient yeast missing the FetFtr1 transport complex. The data set can be described thus: Growth rescue of iron transporter-deficient yeast. It is filed as cell-based, Saccharomyces cerevisiae. To be noted: respiratory and non-permissive copper conditions.
A short description of data set [7]: UV-vis titration with copper (II) chloride. It is filed as binding.
Data set [8] has as its system Δctr1Δctr3 yeast missing the passive copper transporters Ctr1Ctr3. The data set can be described thus: Growth rescue of Δctr1Δctr3 yeast. It is filed as cell-based, Saccharomyces cerevisiae. To be noted: respiratory and non-permissive conditions, copper dependent, maximum at intermediate hinokitiol concentrations. The protocol: as §1, with “DELctr1DELctr3” for “DELccc2”, “strain controls” for “strain”, “media,” for “media, this time”, “1.0” for “1.5 or 2”

Data set [9] is described as follows: Stoichiometric metal competition, ICP-MS quantification of extracted hinokitiol-bound metal. To be noted: 1 mM each divalent metal, 1 mM hinokitiol, 10 mM Mes/Tris, 1:1 MeOH:H2O, pH 7.0, N=6. It is filed as binding. The protocol:
Hinokitiol binds to and sequesters copper with a greater affinity than any other metal (including iron). Stoichiometric competition experiments with 1 mM of each divalent metal and 1 mM hinokitiol in a 10 mM Mes/Tris buffer in 1:1 MeOH:H2O at pH=7.0. Hinokitiol binds many metals by ICP-MS quantification of extracted hinokitiol-bound metal. The metal in the organic layer was determined to be in the order of Cu>Fe>Mn≈Zn>Co>Ni. ND=Not detected. N=6. (FIG. 2)

In the case of `CC(C)c1cccc(=O)c(O)c1` [hinokitiol, 2-hydroxy-6-propan-2-ylcyclohepta-2,4,6-trien-1-one], the growth rescue entry in data set [1] and in data set [5] was “Vigorous rescue” throughout. Besides, the “share of copper complex partitioned into octanol over water” value in data set [2] was found to be 95%. Further, in [3], the “copper (II) transport across liposomal membranes” value is given as “transported copper (II) across liposomal membranes”. The “transport of MnII from liposomes” value in data set [4] is listed as “unable to transport”. The results for the “restoration of yeast growth” value in data set [6] and in [8] were “unable to restore growth” and “dose-dependently restored yeast growth up to wild type control levels”, respectively. Moreover, the “copper binding (complex formation, shift in UV-vis spectra)” value in data set [7] is on record as “readily binds copper”. Moreover, the “order of metal in the organic layer (extracted hinokitiol-bound metal)” value in [9] is listed as “Cu>Fe>Mn≈Zn>Co>Ni”.
